Data: patent publication US20070105810A1, “THERAPEUTICS” (priority 2003, published 2007)

Experiments:
OVA-specific T cells = assay: Proliferation of cultured OVA-specific T cells; format: cell-based
TMBP-GFP cells = assay: Intravital videomicroscopy: motility of TMBP-GFP cells in the spleen; format: in vivo, rat; conditions: 3 d after T cell transfer, 6.5 μm/min in DMSO-treated controls, preliminary
Experimental: Intravital videomicroscopy of the spleen of vehicle (DMSO, left) A or BZ194 B-treated animals 3 d after T cell transfer. The ratio between stationary and motile MBP-specific GFP T cells (upper graphs) and cell trajectories (lower graphs, 10 min analysis) are shown. Stationary cells are defined as cells moving less than 10 μm in 10 minutes.
Animals were anesthetized by intraperitoneal injection of xylazine/ketamine (10 mg/kg and 50 mg/kg, respectively), with reapplied doses (1 mg/kg xylazine/5 mg/kg ketamine) administered as required. Adequate oxygenation was ensured by an oxygen (95% O2/5% CO2) mask fixed on the animal's snout. Body temperature was controlled by a heated pad. For spleen imaging temperature and moistness controlled chambers were constructed for inverted microscope settings. Surgically exposed spleens with intact vasculature were carefully placed into the chambers superfused with carbogenated HBSS (95% O25% CO2).
Time-lapse recordings were performed using an inverted microscope (Zeiss, Axiovert 200M) equipped with a 20×, 0.4 NA objective (Zeiss). Images were acquired using a Coolsnap-HQ camera (Photometrics, Roper Scientific, Tuscon, Ariz.) in 30 s time intervals and processed by MetaMorph (Visitron Systems, Puchheim, Germany). Image J software (freeware, provided by Wayne Rasband, NIH) was used to evaluate cell trajectories and velocity.

SMILES: CCCCCCCCNC(=O)C[n+]1cccc(C(=O)O)c1.[Br-] [BZ194, 3-Carboxy-1-Octylcarbamoylmethyl-Pyridinium]
- proliferation (OVA-specific T cells): anti-proliferative effect
- average velocity of TMBP-GFP cells (TMBP-GFP cells): 3.5 μm/min
